# Where “and” joins values, the source holds several entries; their conditions need not be identical. Identical values can stand only once.
# What was measured:
# mGluR2 [1] = molecular target: T1, mGluR2 (Mus musculus, UniProt Q14BI2); test: Functional calcium imaging, SNAP-mGluR2 (no FLAG-tag) with chimeric G protein Gqo5 in HEK293T cells; format: cell-based; parameters: Full length mGluR2 construct with an amber codon (TAG) mutation of amino acid A548 (azi-CRD) or N-terminal SNAP-tag (SNAP-mGluR2); host or cells: HEK293T; conditions: for Intracellular Ca2+ Response (normalized to 1mM glutamate), Mean: Glutamate + 90nM Ro 64-5229
# mGluR2 [2] = molecular target: T1, mGluR2; test: Live-cell FRET, SNAP-m2 (VFT domain) inter-subunit sensor in HEK293T cells; conditions: for Mean normalized FRET response, SNAP-m2 NAM DRC: glutamate + 10μM modulator, maximal response normalized to 1mM glutamate;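 as to all read-outs here: apparent FRET efficiency from whole-membrane ROIs of single cells, corrected for donor bleed-through and background, ΔFRET as treatment minus pretreatment signal, recorded at room temperature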
# mGluR2 [3] = molecular target: mGluR2 (Mus musculus, UniProt Q14BI2, A548F); test: Live-cell FRET, azi-CRD (cysteine-rich domain) sensor in HEK293T cells; conditions: for azi-CRD normalized FRET response, Mean / azi-CRD normalized FRET response, individual cell: Glutamate + 10μM modulator (NAM); for azi-CRD normalized FRET response, Mean: maximal response normalized to 1mM glutamate; for azi-CRD normalized FRET response, individual cell: single-cell replicate
# mGluR2 [4] = molecular target: mGluR2 (Mus musculus, UniProt Q14BI2, INS715F); test: Live-cell FRET, azi-ECL2 (7TM domain, extracellular loop 2) sensor in HEK293T cells; conditions: for Mean normalized azi-ECL2 FRET response: glutamate + 10μM modulator, maximal response normalized to 1mM glutamate;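 as to all read-outs here: Cy3/Cy5 click-labeled sensor, whole-membrane ROIs per cell, apparent FRET after bleed-through correction, ΔFRET as treatment minus pre-treatment signal, at room temperature, at least three biological replicates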
# [5] = 10μM Ro 64-5229, ([1 mM glutamate + modulator] - [1 mM glutamate]) × 100
# mGluR2 (Mus musculus, UniProt Q14BI2, INS715F), sequence (Q14BI2 with tags, fused parts or gaps INS715F): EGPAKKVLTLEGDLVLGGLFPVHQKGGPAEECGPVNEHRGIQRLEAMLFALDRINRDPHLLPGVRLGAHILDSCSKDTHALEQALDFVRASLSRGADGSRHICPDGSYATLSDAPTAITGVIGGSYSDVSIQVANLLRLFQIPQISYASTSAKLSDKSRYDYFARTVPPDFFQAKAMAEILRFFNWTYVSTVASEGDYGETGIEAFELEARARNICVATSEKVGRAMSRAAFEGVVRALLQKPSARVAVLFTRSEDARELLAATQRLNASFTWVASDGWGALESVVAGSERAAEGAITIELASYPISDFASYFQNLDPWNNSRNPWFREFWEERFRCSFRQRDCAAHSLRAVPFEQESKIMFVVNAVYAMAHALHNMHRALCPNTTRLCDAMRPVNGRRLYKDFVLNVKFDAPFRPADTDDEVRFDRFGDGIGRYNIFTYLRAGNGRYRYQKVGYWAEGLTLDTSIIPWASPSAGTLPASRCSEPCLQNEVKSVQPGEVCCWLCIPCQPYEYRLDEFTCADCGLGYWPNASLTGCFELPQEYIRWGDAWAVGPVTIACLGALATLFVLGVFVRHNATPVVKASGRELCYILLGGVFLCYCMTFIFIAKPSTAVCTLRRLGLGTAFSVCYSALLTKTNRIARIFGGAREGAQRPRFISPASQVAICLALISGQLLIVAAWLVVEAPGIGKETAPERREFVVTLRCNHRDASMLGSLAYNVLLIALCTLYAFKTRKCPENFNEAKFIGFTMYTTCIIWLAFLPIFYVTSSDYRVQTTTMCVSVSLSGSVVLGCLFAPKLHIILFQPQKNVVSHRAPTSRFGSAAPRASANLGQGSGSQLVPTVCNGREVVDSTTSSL
# mGluR2 (Mus musculus, UniProt Q14BI2, A548F), sequence (Q14BI2 19-872 A548F): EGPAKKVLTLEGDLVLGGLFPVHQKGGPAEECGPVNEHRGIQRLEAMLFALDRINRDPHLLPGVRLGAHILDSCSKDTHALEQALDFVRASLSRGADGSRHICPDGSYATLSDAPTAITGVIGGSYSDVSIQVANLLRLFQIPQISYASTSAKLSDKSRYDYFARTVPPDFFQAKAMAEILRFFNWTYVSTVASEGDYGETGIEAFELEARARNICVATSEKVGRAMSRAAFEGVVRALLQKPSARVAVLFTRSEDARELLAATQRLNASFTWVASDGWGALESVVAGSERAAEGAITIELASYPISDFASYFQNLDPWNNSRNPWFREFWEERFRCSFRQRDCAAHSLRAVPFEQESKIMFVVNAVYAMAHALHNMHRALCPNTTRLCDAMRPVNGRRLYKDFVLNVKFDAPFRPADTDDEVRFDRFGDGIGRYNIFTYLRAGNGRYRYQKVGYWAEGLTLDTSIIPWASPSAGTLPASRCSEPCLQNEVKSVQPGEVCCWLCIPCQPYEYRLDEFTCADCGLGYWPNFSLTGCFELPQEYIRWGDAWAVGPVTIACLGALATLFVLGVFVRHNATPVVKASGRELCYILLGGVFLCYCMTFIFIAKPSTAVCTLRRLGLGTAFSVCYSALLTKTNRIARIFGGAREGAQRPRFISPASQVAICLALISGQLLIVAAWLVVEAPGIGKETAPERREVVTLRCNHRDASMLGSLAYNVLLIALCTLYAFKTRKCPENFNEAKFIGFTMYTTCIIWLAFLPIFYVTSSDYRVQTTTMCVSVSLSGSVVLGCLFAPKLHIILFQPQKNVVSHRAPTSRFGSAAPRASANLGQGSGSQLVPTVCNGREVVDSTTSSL
# T1 sequence (Q14BI2 19-872): as the sequence (Q14BI2 19-872 A548F) above, with F530A counted along it
smiles,measurement,setting,value
Clc1cccc(Cl)c1/C(=C/n1cncn1)OC1CCCCCC1 [Ro 64–5229],Effect on receptor activation (calcium imaging) in the presence of glutamate,mGluR2 [1]; 10 μM NAM,block receptor activation
same,"Intracellular Ca2+ Response, % 1mM Glutamate","mGluR2 [1]; 1mM Glutamate + 90nM Ro 64-5229, individual experiments",79.692% and 78.096% and 66.28%
same,Mean ΔEfficacy of glutamate,"mGluR2 [1]; Ca2+ response, 1 mM glutamate + 90 nM modulator, ([1 mM glutamate + modulator] - [1 mM glutamate]) × 100",-25.3109
same,"ΔEfficacy of glutamate, individual experiments","mGluR2 [1]; Ca2+ response, 1 mM glutamate + 90 nM modulator, single replicate",-21.9043 and -33.7198 and -20.3084
same,Mean ΔPotency of glutamate,"mGluR2 [1]; Ca2+ response, glutamate + 90 nM modulator, (([modulator + glutamate]EC50 – [glutamate]EC50)/[glutamate]EC50) × 100",160.286
same,"ΔPotency of glutamate, individual experiments","mGluR2 [1]; Ca2+ response, glutamate + 90 nM modulator, single replicate",46.8661 and 141.491 and 292.502
same,"Intracellular Ca2+ Response (normalized to 1mM glutamate), Mean",mGluR2 [1]; log[Glutamate] (M) -3,0.7469
same,"Intracellular Ca2+ Response (normalized to 1mM glutamate), Mean",mGluR2 [1]; log[Glutamate] (M) -3.60206,0.7222
same,"Intracellular Ca2+ Response (normalized to 1mM glutamate), Mean",mGluR2 [1]; log[Glutamate] (M) -4.1549,0.5737
same,"Intracellular Ca2+ Response (normalized to 1mM glutamate), Mean",mGluR2 [1]; log[Glutamate] (M) -4.52288,0.2233
same,"Intracellular Ca2+ Response (normalized to 1mM glutamate), Mean",mGluR2 [1]; log[Glutamate] (M) -5,0.1471
same,"Intracellular Ca2+ Response (normalized to 1mM glutamate), Mean",mGluR2 [1]; log[Glutamate] (M) -5.39794,0
same,"Intracellular Ca2+ Response (normalized to 1mM glutamate), Mean",mGluR2 [1]; log[Glutamate] (M) -5.82391,0
same,"Intracellular Ca2+ Response (normalized to 1mM glutamate), Mean",mGluR2 [1]; log[Glutamate] (M) -6.52288,0
same,"Intracellular Ca2+ Response (normalized to 1mM glutamate), Mean",mGluR2 [1]; log[Glutamate] (M) -7,0
same,"SNAP-m2 - ΔEfficacy, Mean ΔEfficacy",mGluR2 [2]; [5],-12.5077
same,Mean max response (normalized max ΔFRET),"mGluR2 [2]; SNAP-m2, 1 mM glutamate + 10 μM modulator, normalized to 1 mM glutamate",0.87
same,Mean ΔPotency,"mGluR2 [2]; SNAP-m2, 10μM modulator, (([modulator + glutamate]EC50 – [glutamate] EC50)/[glutamate] EC50) × 100",64.9494
same,Mean ΔEfficacy,"mGluR2 [2]; SNAP-m2, 10μM modulator, ([1 mM glutamate + modulator] - [1 mM glutamate]) × 100",-12.5077
same,Hill slope of glutamate titration,"mGluR2 [2]; SNAP-m2 sensor, + 10 μM modulator",–1.52
same,"Mean normalized FRET response, SNAP-m2 NAM DRC",mGluR2 [2]; log[Glutamate] (M) -3,-0.8749
same,"Mean normalized FRET response, SNAP-m2 NAM DRC",mGluR2 [2]; log[Glutamate] (M) -4.1549,-0.7502
same,"Mean normalized FRET response, SNAP-m2 NAM DRC",mGluR2 [2]; log[Glutamate] (M) -4.52288,-0.5932
same,"Mean normalized FRET response, SNAP-m2 NAM DRC",mGluR2 [2]; log[Glutamate] (M) -5,-0.2293
same,"Mean normalized FRET response, SNAP-m2 NAM DRC",mGluR2 [2]; log[Glutamate] (M) -5.39794,-0.07065
same,"Mean normalized FRET response, SNAP-m2 NAM DRC",mGluR2 [2]; log[Glutamate] (M) -5.82391,-0.0217
same,"Mean normalized FRET response, SNAP-m2 NAM DRC",mGluR2 [2]; log[Glutamate] (M) -6.52288,0
same,"Mean normalized FRET response, SNAP-m2 NAM DRC",mGluR2 [2]; log[Glutamate] (M) -7,0
same,"Mean normalized FRET response, SNAP-m2 NAM DRC",mGluR2 [2]; log[Glutamate] (M) -7.69897,0
same,"Mean normalized FRET response, SNAP-m2 NAM DRC",mGluR2 [2]; log[Glutamate] (M) -4.69897,-0.4605
same,"azi-CRD - ΔEfficacy, Mean ΔEfficacy",mGluR2 [3]; [5],-41.4006
same,"azi-CRD - ΔEfficacy, individual cell responses","mGluR2 [3]; 10μM Ro 64-5229, single cells",-28.0702 and -27.0053 and -21.7759 and -17.8571 and -54.2848 and -56.1085 and -49.8998 and -39.7625 and -52.6646 and -45.8685 and -32.6644 and -42.4305 and -51.9931 and -35.5526 and -41.2702 and -37.27 and -50.0412 and -60.6915
same,"azi-CRD normalized FRET response, Mean",mGluR2 [3]; log[Glutamate] (M) -3,0.586
same,"azi-CRD normalized FRET response, individual cell",mGluR2 [3]; log[Glutamate] (M) -3,0.586
same,"azi-CRD normalized FRET response, Mean",mGluR2 [3]; log[Glutamate] (M) -4.1549,0.5093
same,"azi-CRD normalized FRET response, individual cell",mGluR2 [3]; log[Glutamate] (M) -4.1549,0.5346 and 0.4622 and 0.5203 and 0.5084 and 0.5826 and 0.5517 and 0.4974 and 0.5062 and 0.5143 and 0.4926 and 0.4963 and 0.4643 and 0.4905
same,"azi-CRD normalized FRET response, Mean",mGluR2 [3]; log[Glutamate] (M) -4.52288,0.3977
same,"azi-CRD normalized FRET response, individual cell",mGluR2 [3]; log[Glutamate] (M) -4.52288,0.3335 and 0.3611 and 0.3991 and 0.4165 and 0.5072 and 0.4352 and 0.378 and 0.3755 and 0.3785 and 0.4157 and 0.3821 and 0.3693 and 0.4189
same,"azi-CRD normalized FRET response, Mean",mGluR2 [3]; log[Glutamate] (M) -5,0.2248
same,"azi-CRD normalized FRET response, individual cell",mGluR2 [3]; log[Glutamate] (M) -5,0.1496 and 0.3033 and 0.2652 and 0.2455 and 0.317 and 0.2125 and 0.1682 and 0.183 and 0.1871 and 0.1831 and 0.172 and 0.2951 and 0.2409
same,"azi-CRD normalized FRET response, Mean",mGluR2 [3]; log[Glutamate] (M) -5.39794,0.1255
same,"azi-CRD normalized FRET response, individual cell",mGluR2 [3]; log[Glutamate] (M) -5.39794,0.1184 and 0.1898 and 0.1288 and 0.1204 and 0.1285 and 0.1251 and 0.1085 and 0.1183 and 0.1305 and 0.09889 and 0.1192 and 0.1155 and 0.1302
same,"azi-CRD normalized FRET response, Mean",mGluR2 [3]; log[Glutamate] (M) -5.82391,0.06192
same,"azi-CRD normalized FRET response, individual cell",mGluR2 [3]; log[Glutamate] (M) -5.82391,0.04987 and 0.1052 and 0.0682 and 0.05385 and 0.04969 and 0.05654 and 0.05788 and 0.05365 and 0.05774 and 0.05311 and 0.05405 and 0.04746 and 0.09767
same,"azi-CRD normalized FRET response, Mean",mGluR2 [3]; log[Glutamate] (M) -6.52288,0.03074
same,"azi-CRD normalized FRET response, individual cell",mGluR2 [3]; log[Glutamate] (M) -6.52288,0.03117 and 0.03301 and 0.02778 and 0.02217 and 0.02741 and 0.0634 and 0.03617 and 0.02751 and 0.02353 and 0.01178 and 0.01113 and 0.04333 and 0.04124
same,"azi-CRD normalized FRET response, Mean",mGluR2 [3]; log[Glutamate] (M) -7,0
same,"azi-CRD normalized FRET response, individual cell",mGluR2 [3]; log[Glutamate] (M) -7,0
same,Hill slope of glutamate titration,"mGluR2 [3]; azi-CRD sensor, + 10 μM modulator",1.05
same,Live-cell FRET max response normalized to 1mM glutamate,"mGluR2 [3]; azi-CRD sensor, Glutamate + 10μM Ro 64-5229, individual values (N=18)",0.4572 and 0.4389 and 0.501 and 0.6024 and 0.4733 and 0.5413 and 0.6734 and 0.5757 and 0.4801 and 0.6445 and 0.5873 and 0.6273 and 0.4996 and 0.3931 and 0.7193 and 0.7299 and 0.7822 and 0.8214
same,Mean max response (normalized max ΔFRET),"mGluR2 [3]; azi-CRD, 1 mM glutamate + 10 μM modulator, normalized to 1 mM glutamate",0.59
same,Mean ΔPotency,"mGluR2 [3]; azi-CRD, 10μM modulator, (([modulator + glutamate]EC50 – [glutamate] EC50)/[glutamate] EC50) × 100",46.1673
same,"ΔPotency, individual cell","mGluR2 [3]; azi-CRD, 10μM modulator, calculated from individual cell responses",111.788 and 54.4953 and 84.4604 and 80.2661 and 72.5435 and 46.8592 and 26.2598 and 27.1246 and 2.91 and 18.4766 and 20.2062 and -17.7582
same,"azi-ECL2 - ΔEfficacy, Mean ΔEfficacy",mGluR2 [4]; [5],-16.382
same,Mean ΔPotency,"mGluR2 [4]; 10μM modulator, (([modulator + glutamate]EC50 – [glutamate] EC50)/[glutamate] EC50) × 100",238.581
same,"ΔPotency, individual cell responses","mGluR2 [4]; 10μM modulator, single cells, (([modulator + glutamate]EC50 – [glutamate] EC50)/[glutamate] EC50) × 100",105.749 and 188.087 and 277.044 and 382.546 and 239.476
same,"ΔEfficacy, individual cell responses","mGluR2 [4]; 10μM modulator, single cells, ([1 mM glutamate + modulator] - [1 mM glutamate]) × 100",-3.67 and -2.778 and -15 and -26.6667 and -29.3756 and -15.3219 and -1.127 and -37.1174
same,Mean max response (normalized max ΔFRET),"mGluR2 [4]; azi-ECL2, 1 mM glutamate + 10 μM modulator, normalized to 1 mM glutamate",0.84
same,Hill slope of glutamate titration,"mGluR2 [4]; azi-ECL2 sensor, + 10 μM modulator",1.07
same,Live-cell FRET max response normalized to 1mM glutamate,"mGluR2 [4]; azi-ECL2 sensor, Glutamate + 10μM Ro 64-5229, individual values (N=8)",0.7062 and 0.8468 and 0.9887 and 0.6288 and 0.9633 and 0.9722 and 0.85 and 0.7333
same,Mean normalized azi-ECL2 FRET response,mGluR2 [4]; log[Glutamate] (M) -3,0.8362
same,Mean normalized azi-ECL2 FRET response,mGluR2 [4]; log[Glutamate] (M) -4.1549,0.6516
same,Mean normalized azi-ECL2 FRET response,mGluR2 [4]; log[Glutamate] (M) -4.52288,0.5392
same,Mean normalized azi-ECL2 FRET response,mGluR2 [4]; log[Glutamate] (M) -5,0.3248
same,Mean normalized azi-ECL2 FRET response,mGluR2 [4]; log[Glutamate] (M) -5.39794,0.1335
same,Mean normalized azi-ECL2 FRET response,mGluR2 [4]; log[Glutamate] (M) -5.82391,0.04706
same,Mean normalized azi-ECL2 FRET response,mGluR2 [4]; log[Glutamate] (M) -6.52288,0
same,Mean normalized azi-ECL2 FRET response,mGluR2 [4]; log[Glutamate] (M) -7,0
same,Mean normalized azi-ECL2 FRET response,mGluR2 [4]; log[Glutamate] (M) -7.69897,0
same,Mean normalized azi-ECL2 FRET response,mGluR2 [4]; log[Glutamate] (M) -4.69897,0.5381
